In US20240409585A1, “MACROCYCLIC IMMUNOMODULATORS” (priority 2021, published 2024):
Bridge positions count the residues as written; N and C are the ends. Square brackets hold non-standard residues; d marks the D form. Peptide text beside a SMILES is read from it. * marks the point of attachment. Phe(4-COOH) = N[C@@H](Cc1ccc(C(=O)O)cc1)C(=O)O; Bip = N[C@@H](Cc1ccc(-c2ccccc2)cc1)C(=O)O; Phe(3-CN) = N#Cc1cccc(C[C@H](N)C(=O)O)c1; Phe(2-Cl) = N[C@@H](Cc1ccccc1Cl)C(=O)O; Phe(3-F) = N[C@@H](Cc1cccc(F)c1)C(=O)O; Phe(3-Me) = Cc1cccc(C[C@H](N)C(=O)O)c1; Bta = N[C@@H](Cc1csc2ccccc12)C(=O)O; d(aThr) = C[C@@H](O)[C@@H](N)C(=O)O; Nva(4-oxo) = CC(=O)C[C@H](N)C(=O)O; Val(3-OH) = CC(C)(O)[C@H](N)C(=O)O; Cha = N[C@@H](CC1CCCCC1)C(=O)O; Cit = NC(=O)NCCC[C@H](N)C(=O)O; Carboxymethyl = O=C(O)C*; NMeA = CN[C@@H](C)C(=O)O; Orn = NCCC[C@H](N)C(=O)O; Dab = NCC[C@H](N)C(=O)O; Dap = NC[C@H](N)C(=O)O

target: T1, PE-labeled human PD-L1-Ig binding to Jurkat cell line over-expressing human PD-1 (Jurkat-PD-1) (Homo sapiens, UniProt Q15116); experiment: Jurkat-PD-1 Cell Binding High-Content Screening Assay (CBA): Method 1; settings: Jurkat-hPD-1 cells, PE-labeled PD-L1-Ig 20 nM final; read-out: Jurkat HPDL1 PD1 IC50 (uM) (Method 1)
T1 construct: expressed in transfected cells; host or cells: Jurkat
T1 sequence (Q15116 25-288): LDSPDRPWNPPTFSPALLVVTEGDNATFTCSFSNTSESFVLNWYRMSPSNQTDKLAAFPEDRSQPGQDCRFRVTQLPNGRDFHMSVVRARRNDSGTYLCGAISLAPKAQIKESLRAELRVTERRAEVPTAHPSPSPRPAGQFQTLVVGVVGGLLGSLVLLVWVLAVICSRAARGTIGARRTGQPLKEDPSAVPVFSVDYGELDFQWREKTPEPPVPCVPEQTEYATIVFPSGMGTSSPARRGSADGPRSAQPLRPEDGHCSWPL

Row | SMILES | IC50
1 | CC(C)C[C@@H]1NC(=O)[C@H](CCN)NC(=O)[C@@H](CC(C)C)NC(=O)[C@H](C)N(C)C(=O)[C@H](CCCNC(=N)N)NC(=O)[C@H](Cc2ccc(-c3ccccc3)cc2)NC(=O)[C@H](C(C)C)NC(=O)[C@H](Cc2c[nH]c3ccccc23)NC(=O)[C@H](CC(=O)O)NC(=O)[C@H](Cc2ccc(C(=O)O)cc2)NC(=O)[C@H](CN)NC(=O)CSC[C@@H](C(=O)N[C@@H](C)C(N)=O)NC(=O)[C@H]([C@@H](C)O)NC(=O)[C@H](C(C)C)NC1=O [Compound 1451] ({CH2CO}-[Dap][Phe(4-COOH)]DWV[Bip]R[NMeA][dL][Dab]LVTCA-NH2; thioether N-14) | 0.08 µM
2 | CC(C)C[C@@H]1NC(=O)[C@H](Cc2c[nH]c3ccccc23)NC(=O)[C@H](CC(=O)O)NC(=O)[C@H](Cc2ccc(O)cc2)NC(=O)[C@H](Cc2ccccc2)NC(=O)CSC[C@@H](C(=O)NCC(N)=O)NC(=O)[C@H](CO)NC(=O)[C@H](C(C)C)NC(=O)[C@H](CC(C)C)NC(=O)[C@H](CC(N)=O)NC(=O)[C@@H]([C@@H](C)O)NC(=O)[C@H](C)N(C)C(=O)[C@H](C(C)C)NC(=O)[C@H](Cc2ccc(-c3ccccc3)cc2)NC1=O [Compound 1752] ({CH2CO}-FYDWL[Bip]V[NMeA][d(aThr)]NLVSCG-NH2; thioether N-14) | 0.03 µM
3 | CC(=O)NCCCC[C@@H]1NC(=O)[C@H](C(C)C)NC(=O)[C@H](CC2CCCCC2)NC(=O)[C@H](CCN)NC(=O)[C@@H](CC(C)C)NC(=O)[C@H](C)N(C)C(=O)[C@H](CC(N)=O)NC(=O)[C@H](Cc2ccc(-c3ccccc3)cc2)NC(=O)[C@H](C(C)C)NC(=O)[C@H](Cc2cccc(C)c2)NC(=O)[C@H](CC(=O)O)NC(=O)[C@H](Cc2ccc(OCC(=O)O)cc2)NC(=O)[C@H](Cc2ccc(OCC(=O)O)cc2)NC(=O)CSC[C@@H](C(N)=O)NC1=O [Compound 2263] ({CH2CO}-Y(Carboxymethyl)Y(Carboxymethyl)D[Phe(3-Me)]V[Bip]N[NMeA][dL][Dab][Cha]VK(Ac)C-NH2; thioether N-14) | 0.01 µM
4 | CC(C)C[C@H]1NC(=O)[C@H](C)N(C)C(=O)[C@H](CCCNC(=N)N)NC(=O)[C@H](Cc2ccc(-c3ccccc3)cc2)NC(=O)[C@H](C(C)C)NC(=O)[C@H](Cc2c[nH]c3ccccc23)NC(=O)[C@H](CC(=O)O)NC(=O)[C@H](Cc2ccc(O)cc2)NC(=O)[C@H](Cc2ccccc2)NC(=O)CSC[C@@H](C(=O)N[C@@H](C)C(N)=O)NC(=O)[C@H]([C@@H](C)O)NC(=O)[C@H](C(C)C)NC(=O)[C@H](CC2CCCCC2)NC(=O)[C@H](CCCNC(=N)N)NC1=O [Compound 1115] ({CH2CO}-FYDWV[Bip]R[NMeA][dL]R[Cha]VTCA-NH2; thioether N-14) | 0.05 µM
5 | Cc1cccc(C[C@@H]2NC(=O)[C@H](CC(=O)O)NC(=O)[C@H](Cc3ccc(OCC(=O)O)cc3)NC(=O)[C@H](CN)NC(=O)CSC[C@@H](C(=O)N[C@@H](C)C(N)=O)NC(=O)[C@H]([C@@H](C)O)NC(=O)[C@H](C(C)C)NC(=O)[C@H](CC(C)C)NC(=O)[C@H](CCN)NC(=O)[C@@H](CC(C)C)NC(=O)[C@H](C)N(C)C(=O)[C@H](CCCNC(N)=O)NC(=O)[C@H](Cc3ccc(-c4ccccc4)cc3)NC(=O)[C@H](C(C)C)NC2=O)c1 [Compound 1437] ({CH2CO}-[Dap]Y(Carboxymethyl)D[Phe(3-Me)]V[Bip][Cit][NMeA][dL][Dab]LVTCA-NH2; thioether N-14) | 0.02 µM
6 | CC(C)C[C@@H]1NC(=O)[C@H](CCN)NC(=O)[C@@H](CC(C)C)NC(=O)[C@H](C)N(C)C(=O)[C@H](C(C)C)NC(=O)[C@H](Cc2ccc(-c3ccccc3)cc2)NC(=O)[C@H](C(C)C)NC(=O)[C@H](Cc2c[nH]c3ccccc23)NC(=O)[C@H](CC(=O)O)NC(=O)[C@H](Cc2ccc(OCC(=O)O)cc2)NC(=O)[C@H](CC(N)=O)NC(=O)CSC[C@@H](C(=O)N[C@@H](C)C(N)=O)NC(=O)[C@H]([C@@H](C)O)NC(=O)[C@H](C(C)C)NC1=O [Compound 1377] ({CH2CO}-NY(Carboxymethyl)DWV[Bip]V[NMeA][dL][Dab]LVTCA-NH2; thioether N-14) | 0.02 µM
7 | CC(C)C[C@@H]1NC(=O)[C@H](CCCN)NC(=O)[C@H](Cc2csc3ccccc23)NC(=O)[C@H](C)N(C)C(=O)[C@H](CCC(=O)O)NC(=O)[C@H](Cc2ccc(-c3ccccc3)cc2)NC(=O)[C@H](C(C)C)NC(=O)[C@H](Cc2c[nH]c3ccccc23)NC(=O)[C@H](CC(=O)O)NC(=O)[C@H](Cc2ccc(O)cc2)NC(=O)[C@H](Cc2ccccc2)NC(=O)CSC[C@@H](C(=O)N[C@@H](C)C(N)=O)NC(=O)[C@H]([C@@H](C)O)NC(=O)[C@H](C(C)C)NC1=O [Compound 1132] ({CH2CO}-FYDWV[Bip]E[NMeA][Bta][Orn]LVTCA-NH2; thioether N-14) | 0.16 µM
8 | CC(C)C[C@@H]1NC(=O)[C@H](Cc2c[nH]c3ccccc23)NC(=O)[C@H](CC(=O)O)NC(=O)[C@H](Cc2ccccc2Cl)NC(=O)[C@H](Cc2ccccc2)NC(=O)CSC[C@@H](C(=O)N[C@@H](C)C(N)=O)NC(=O)[C@H](CO)NC(=O)[C@H](C(C)C)NC(=O)[C@H](CC(C)C)NC(=O)[C@H](CC(N)=O)NC(=O)[C@@H](C)NC(=O)[C@H](C)N(C)C(=O)[C@H](C(C)C)NC(=O)[C@H](Cc2ccc(-c3ccccc3)cc2)NC1=O [Compound 1807] ({CH2CO}-F[Phe(2-Cl)]DWL[Bip]V[NMeA][dA]NLVSCA-NH2; thioether N-14) | 0.24 µM
9 | CC(C)C[C@@H]1NC(=O)[C@H](Cc2c[nH]c3ccccc23)NC(=O)[C@H](CC(=O)O)NC(=O)[C@H](Cc2ccc(O)cc2)NC(=O)[C@H](Cc2ccccc2)NC(=O)CSC[C@@H](C(=O)NCC(N)=O)NC(=O)[C@H]([C@@H](C)O)NC(=O)[C@H](C(C)C)NC(=O)[C@H](CC(C)C)NC(=O)[C@H](CCN)NC(=O)[C@@H](C)NC(=O)[C@H](C)N(C)C(=O)[C@H](C(C)C)NC(=O)[C@H](Cc2ccc(-c3ccccc3)cc2)NC1=O [Compound 1477] ({CH2CO}-FYDWL[Bip]V[NMeA][dA][Dab]LVTCG-NH2; thioether N-14) | 0.02 µM
10 | CC(C)C[C@@H]1NC(=O)[C@H](CCCNC(=N)N)NC(=O)[C@@H](CC(C)C)NC(=O)[C@H](C)N(C)C(=O)[C@H](C(C)C)NC(=O)[C@H](Cc2ccc(-c3ccccc3)cc2)NC(=O)[C@H](C(C)C)NC(=O)[C@H](Cc2c[nH]c3ccccc23)NC(=O)[C@H](CC(=O)O)NC(=O)[C@H](Cc2ccc(O)cc2)NC(=O)[C@H](Cc2ccccc2)NC(=O)CSC[C@@H](C(=O)N[C@@H](C)C(N)=O)NC(=O)[C@H](CO)NC(=O)[C@H](C(C)C)NC1=O [Compound 1770] ({CH2CO}-FYDWV[Bip]V[NMeA][dL]RLVSCA-NH2; thioether N-14) | 0.04 µM
11 | CCNC(=O)[C@H](CCN)NC(=O)[C@@H]1CSCC(=O)N[C@@H]([C@@H](C)O)C(=O)N[C@@H](Cc2cccc(C#N)c2)C(=O)N[C@@H](CC(=O)O)C(=O)N[C@@H](Cc2cccc(C)c2)C(=O)N[C@@H](Cc2cccc(F)c2)C(=O)N[C@@H](Cc2ccc(-c3ccccc3)cc2)C(=O)N[C@@H](Cc2ccc(OCC(=O)O)cc2)C(=O)N(C)[C@@H](C)C(=O)N[C@H](CC(C)C)C(=O)N[C@@H](CCN)C(=O)N[C@@H](CC2CCCCC2)C(=O)N[C@@H](C(C)(C)O)C(=O)N[C@@H](CO)C(=O)N1 [Compound 1842] ({CH2CO}-T[Phe(3-CN)]D[Phe(3-Me)][Phe(3-F)][Bip]Y(Carboxymethyl)[NMeA][dL][Dab][Cha][Val(3-OH)]SC[Dab]-NHEt; thioether N-14) | 0.02 µM
12 | CC(=O)C[C@@H]1NC(=O)[C@H](Cc2ccc(OCC(=O)O)cc2)NC(=O)[C@H](Cc2ccccc2)NC(=O)CSC[C@@H](C(=O)N[C@@H](C)C(=O)N[C@@H](CCCCN)C(N)=O)NC(=O)[C@H](CO)NC(=O)[C@H](C(C)C)NC(=O)[C@H](CC(C)C)NC(=O)[C@H](CC(N)=O)NC(=O)[C@@H](CC(C)C)NC(=O)[C@H](C)N(C)C(=O)[C@H](C(C)C)NC(=O)[C@H](Cc2ccc(-c3ccccc3)cc2)NC(=O)[C@H](CC(C)C)NC(=O)[C@H](Cc2c[nH]c3ccccc23)NC1=O [Compound 2013] ({CH2CO}-FY(Carboxymethyl)[Nva(4-oxo)]WL[Bip]V[NMeA][dL]NLVSCAK-NH2; thioether N-14) | 0.01 µM
13 | COc1ccc(C[C@H]2NC(=O)[C@H](C)N(C)C(=O)[C@H](CCCNC(=N)N)NC(=O)[C@H](Cc3ccc(-c4ccccc4)cc3)NC(=O)[C@H](C(C)C)NC(=O)[C@H](Cc3c[nH]c4ccccc34)NC(=O)[C@H](CC(=O)O)NC(=O)[C@H](Cc3ccc(O)cc3)NC(=O)[C@H](Cc3ccccc3)NC(=O)CSC[C@@H](C(=O)N[C@@H](C)C(N)=O)NC(=O)[C@H]([C@@H](C)O)NC(=O)[C@H](C(C)C)NC(=O)[C@H](CC(C)C)NC(=O)[C@H](CCCNC(=N)N)NC2=O)cc1 [Compound 1108] ({CH2CO}-FYDWV[Bip]R[NMeA][dY](Me)RLVTCA-NH2; thioether N-14) | 0.53 µM
14 | Cc1cccc(C[C@@H]2NC(=O)[C@H](CC(=O)O)NC(=O)[C@H](Cc3ccc(OCC(=O)O)cc3)NC(=O)[C@H]([C@@H](C)O)NC(=O)CSC[C@@H](C(N)=O)NC(=O)[C@H](CCC(N)=O)NC(=O)[C@H](C(C)C)NC(=O)[C@H](CC3CCCCC3)NC(=O)[C@H](CC(N)=O)NC(=O)[C@@H](CC(C)C)NC(=O)[C@H](C)N(C)C(=O)[C@H](Cc3ccc(OCC(=O)O)cc3)NC(=O)[C@H](Cc3ccc(-c4ccccc4)cc3)NC(=O)[C@H](Cc3ccc(OCC(=O)O)cc3)NC2=O)c1 [Compound 1677] ({CH2CO}-TY(Carboxymethyl)D[Phe(3-Me)]Y(Carboxymethyl)[Bip]Y(Carboxymethyl)[NMeA][dL]N[Cha]VQC-NH2; thioether N-14) | 0.16 µM
15 | Cc1cccc(C[C@@H]2NC(=O)[C@H](CC(=O)O)NC(=O)[C@H](Cc3ccc(OCC(=O)O)cc3)NC(=O)[C@H](CC(N)=O)NC(=O)CSC[C@@H](C(N)=O)NC(=O)[C@H](CC(N)=O)NC(=O)[C@H](C(C)C)NC(=O)[C@H](CC3CCCCC3)NC(=O)[C@H](CCN)NC(=O)[C@@H](CC(C)C)NC(=O)[C@H](C)N(C)C(=O)[C@H](Cc3ccc(OCC(=O)O)cc3)NC(=O)[C@H](Cc3ccc(-c4ccccc4)cc3)NC(=O)[C@H](Cc3ccc(OCC(=O)O)cc3)NC2=O)c1 [Compound 1664] ({CH2CO}-NY(Carboxymethyl)D[Phe(3-Me)]Y(Carboxymethyl)[Bip]Y(Carboxymethyl)[NMeA][dL][Dab][Cha]VNC-NH2; thioether N-14) | 0.05 µM
